Experimental data reported in patent US20070167526A1, “Topical mecamylamine formulations for ocular administration and uses thereof” (priority 2005, published 2007).
Like-named read-outs stand apart in the source and are kept apart here.

Legend:
[1] = Single- and multiple-dose rabbit ocular pharmacokinetics (Example 7); assay type: in vivo, Dutch-belted rabbit
Protocol: Dutch-belted male rabbits (Covance, Denver, Pa.) aged 2.5 to 4.5 months and with weights of 1.5 to 2.5 kg were given a 3% solution of mecamylamine hydrochloride (polymer-free solution) by ocular installation either as a single dose or 6 doses (50 microliters per dose), approximately 1.5 hours apart. Serial blood samples (approximately 0.5 mL each) were collected by direct venipuncture from a marginal ear vein into a blood collection tube containing EDTA as anticoagulant from various animal groups at 0.5 hours post dose, 2 hours post dose. A terminal blood sample was obtained from all animals just prior to euthanasia. Animals were euthanized 1, 3 or 6 hours after administration of the drug solution. Ocular tissues (listed in Table 7) were obtained after euthanasia.
The concentration of mecamylamine in plasma and ocular tissues was measured using an LC MS/MS method as described in Example 6.

[2] = Distribution of mecamylamine into ocular tissue of rabbits following intravenous administration (Example 9); assay type: in vivo, New Zealand white rabbit; conditions: rabbit; for concentration at 1 h / concentration at 2 h / concentration at 4 h / concentration at 6 h / concentration at 0 h / concentration at 0.5 h: male, iv; for concentration at 1 h / concentration at 2 h / concentration at 4 h / concentration at 6 h / concentration at 0 h / concentration at 0.5 h / Concentration of mecamylamine in the retina/choroid, Mean: 15 mg/kg; for Concentration of mecamylamine in the retina/choroid, Mean: hour 6, listed as MEC
Protocol: Mecamylamine was administered intravenously to male New Zealand white rabbits (approximately 2.5-3 kg (Kralek Frams, Turlock, Calif.)) at a dose of 15 mg/kg (dissolved in sterile 0.9% NaCl for injection) over either over 60 minutes or 6 hours. Drug concentrations were measured as described previously at different time points in the plasma, the vitreous and at 6 hours in the retina-choroid tissue. For both groups, the vitreous(>0.1 mL) was withdrawn at 8 time points, with each animal being sampled no more than twice in total: pre-dose, 5 minutes, 15 minutes, 30 minutes, 1, 2, 4, and 6 hours. At all time points, only two vitreous samples were collected in order to minimize pain and damage to rabbit eyes, in compliance with IACUC guidelines. Plasma samples were also collected at the same 8 time points: pre-dose, 5 minutes, 15 minutes, 30 minutes, 1, 2, 4, and 6 hours, with duplicate samples collected at each time point. At 6 hours, the animals were sacrificed and the vitreous and retina-choroid tissue were collected from all animals. Clinical observations were recorded periodically throughout the study. Biological samples for this study were analyzed using an LC/MS/MS method (see Example 6) with a lower limit of quantitation of 0.5 ng/mL.

[3] = test system: eyes of New Zealand White rabbits; assay: Pupil diameter, pupillary response and mortality observations after topical ocular instillation in rabbits (Example 10); conditions: rabbit; 2 drops of 50 μL topically
Protocol: The objective of this study was to evaluate the ocular pharmacokinetics of a 2% Mecamylamine in a GELRITE solution up to 6 hours following topical instillation into the eyes of New Zealand White rabbits. Nine New Zealand White female rabbits of minimum age of 9 weeks and weight 2-3 kg were obtained from The Rabbit Source (Ramona, Calif.) were used in the study.
On day 1, 2 drops of 50 μL of mecamylamine or vehicle were administered topically into the appropriate eye(s) of each animal as described in Table 13. The time of each dose administration was recorded.

[4] = Toxicokinetics in the 14-day dog study (Example 13); assay type: in vivo; conditions: for Cmax: both sexes, beagle, dog, in vivo, topical or ocular
Protocol: An ophthalmic saline solution formulation containing 3% mecamylamine hydrochloride (HCl) was evaluated for toxicological effects and drug pharmacokinetics in healthy beagle dogs. The drug solution or a matching vehicle control was administered 2, 4 and […] for 14 or 15 consecutive days to both eyes of Beagle dogs.
Animals were dosed 2, 4 or 6 times a day for 14 consecutive days for males or 15 consecutive days for females. The dose (50 microliters) was administered to the globe of the eye on each dosing occasion. Mortality and clinical observations were evaluated twice daily. Ocular observations were evaluated according to the Draize scoring system twice daily (Draize et al., (1944) J. Pharm. Exp. Ther. 82: 377-390, incorporated by reference herein). All eyes from all animals had ophthalmology examinations using an indirect ophthalmoscope and slit lamp and were evaluated according to McDonald and Shadduck (McDonald & Shadduck (1977) Advances in Modern Toxicology 4: 162 (New York, Wiley), hereby incorporated by reference herein) prior to treatment initiation and 1-2 hours following the final dosing of Groups 1 and 4 on Days 7 and 14. Approximate pupil size was determined for each animal prior to study initiation, at least 30 minutes following the final daily dose on Days 1 and 8 and prior to terminal sacrifice on Days 15/16. Electroretinograms (ERG) were obtained from all animals prior to treatment initiation and on Day 14. Blood samples for evaluation of hematology, coagulation and clinical chemistry parameters were collected prior to treatment initiation and prior to terminal sacrifice on Days 15/16. Selected tissues were harvested at necropsy, selected organs weighed, and selected tissues from all animals were evaluated microscopically.

[5] = test system: VEGF-induced endothelial tube formation; assay: VEGF-induced endothelial tube formation in vitro; assay type: cell-based
[6] = rabbit, 3% solution, 1 hour to 6 hours after dosing

With `CNC1(C)C2CCC(C2)C1(C)C` (stereo not shown) [mecamylamine, N-2,3,3-tetramethylbicyclo(2.2.1)heptan-2-amine] as the molecule, how does the Kp ([1]; male, Dutch-belted, retina/choroid and plasma, topical, 50 µL of 3% solution per dose, rabbit, 3% solution, read-out: ratio of mecamylamine concentration in the retina/choroid to the plasma) read?
The Kp was 37 to 147.

And the Plasma levels ([1]; rabbit, 3% solution)?
The Plasma levels was ≤ 50 ng/mL.

What about the “Mean peak levels in aqueous humor” value [1, 6] of the same molecule?
Its value is 310 to 920 ng/mL.

What about the “Mean peak levels in the retina/choroid” value [1, 6] of the same molecule?
Its value is 171 to 510 ng/g.

What about the “mecamylamine concentration in the retina/choroid after 6 hourly doses relative to single dose” value ([1]; rabbit, 1 hour after 6 hourly doses) of the same molecule?
Its value is “five-fold”.

What about the “mean maximum concentration of mecamylamine detected in plasma” value ([1]; rabbits, topical ocular, single dose and multi-dose studies) of the same molecule?
Its value is “less than 70 ng/mL”.

And the concentration at 1 h ([2]; New Zealand White, plasma, 15 mg/kg i.v. 1 hr infusion, hour 1, read-out: Concentration of mecamylamine in the plasma, Mean)?
The concentration at 1 h was 1820 ng/mL.

And the concentration at 2 h ([2]; New Zealand White, plasma, 15 mg/kg i.v. 1 hr infusion, hour 2, read-out: Concentration of mecamylamine in the plasma, Mean)?
The concentration at 2 h was 455 ng/mL.

And the concentration at 4 h ([2]; New Zealand White, plasma, 15 mg/kg i.v. 1 hr infusion, hour 4, read-out: Concentration of mecamylamine in the plasma, Mean)?
Its concentration at 4 h is 227 ng/mL.

And the concentration at 6 h ([2]; New Zealand White, plasma, 15 mg/kg i.v. 1 hr infusion, hour 6, read-out: Concentration of mecamylamine in the plasma, Mean)?
The concentration at 6 h was 102 ng/mL.

And the concentration at 1 h ([2]; New Zealand White, plasma, 15 mg/kg i.v. 6 hr infusion, hour 1, read-out: Concentration of mecamylamine in the plasma, Mean)?
The concentration at 1 h was 470 ng/mL.

What about the concentration at 2 h ([2]; New Zealand White, plasma, 15 mg/kg i.v. 6 hr infusion, hour 2, read-out: Concentration of mecamylamine in the plasma, Mean) of the same molecule?
Its concentration at 2 h is 572 ng/mL.

What about the concentration at 4 h ([2]; New Zealand White, plasma, 15 mg/kg i.v. 6 hr infusion, hour 4, read-out: Concentration of mecamylamine in the plasma, Mean) of the same molecule?
Its concentration at 4 h is 717 ng/mL.

And the concentration at 6 h ([2]; New Zealand White, plasma, 15 mg/kg i.v. 6 hr infusion, hour 6, read-out: Concentration of mecamylamine in the plasma, Mean)?
Its concentration at 6 h is 313 ng/mL.

And the concentration at 6 h ([2]; New Zealand White, retina/choroid, 15 mg/kg i.v. 1 hr infusion, hour 6, read-out: Concentration of mecamylamine in the retina/choroid, Mean)?
Its concentration at 6 h is 261 ng/mL.

And the concentration at 6 h ([2]; New Zealand White, retina/choroid, 15 mg/kg i.v. 6 hr infusion, hour 6, read-out: Concentration of mecamylamine in the retina/choroid, Mean)?
Its concentration at 6 h is 1530 ng/mL.

And the concentration at 0 h ([2]; New Zealand white, plasma, 15 mg/kg i.v. 1 hr infusion, hour 0, read-out: Concentration of mecamylamine in the plasma, Mean)?
The concentration at 0 h was 48.7 ng/mL.

And the concentration at 0.5 h ([2]; New Zealand white, plasma, 15 mg/kg i.v. 1 hr infusion, hour 0.5, read-out: Concentration of mecamylamine in the plasma, Mean)?
The concentration at 0.5 h was 5330 ng/mL.

And the concentration at 0 h ([2]; New Zealand white, plasma, 15 mg/kg i.v. 6 hr infusion, hour 0, read-out: Concentration of mecamylamine in the plasma, Mean)?
The concentration at 0 h was 0 ng/mL.

What about the concentration at 0.5 h ([2]; New Zealand white, plasma, 15 mg/kg i.v. 6 hr infusion, hour 0.5, read-out: Concentration of mecamylamine in the plasma, Mean) of the same molecule?
Its concentration at 0.5 h is 350 ng/mL.

What about the concentration at 0 h ([2]; New Zealand white, vitreous humor, 15 mg/kg i.v. 1 hr infusion, hour 0, read-out: Concentration of mecamylamine in the vitreous humor, Mean) of the same molecule?
Its concentration at 0 h is 43 ng/mL.

And the concentration at 0.5 h ([2]; New Zealand white, vitreous humor, 15 mg/kg i.v. 1 hr infusion, hour 0.5, read-out: Concentration of mecamylamine in the vitreous humor, Mean)?
The concentration at 0.5 h was 717 ng/mL.

And the concentration at 1 h ([2]; New Zealand white, vitreous humor, 15 mg/kg i.v. 1 hr infusion, hour 1, read-out: Concentration of mecamylamine in the vitreous humor, Mean)?
The concentration at 1 h was 1110 ng/mL.

And the concentration at 2 h ([2]; New Zealand white, vitreous humor, 15 mg/kg i.v. 1 hr infusion, hour 2, read-out: Concentration of mecamylamine in the vitreous humor, Mean)?
The concentration at 2 h was 900 ng/mL.

And the concentration at 4 h ([2]; New Zealand white, vitreous humor, 15 mg/kg i.v. 1 hr infusion, hour 4, read-out: Concentration of mecamylamine in the vitreous humor, Mean)?
Its concentration at 4 h is 430 ng/mL.

And the concentration at 6 h ([2]; New Zealand white, vitreous humor, 15 mg/kg i.v. 1 hr infusion, hour 6, read-out: Concentration of mecamylamine in the vitreous humor, Mean)?
The concentration at 6 h was 174 ng/mL.

What about the concentration at 0 h ([2]; New Zealand white, vitreous humor, 15 mg/kg i.v. 6 hr infusion, hour 0, read-out: Concentration of mecamylamine in the vitreous humor, Mean) of the same molecule?
Its concentration at 0 h is 5.6 ng/mL.

What about the concentration at 0.5 h ([2]; New Zealand white, vitreous humor, 15 mg/kg i.v. 6 hr infusion, hour 0.5, read-out: Concentration of mecamylamine in the vitreous humor, Mean) of the same molecule?
The concentration at 0.5 h was 59.9 ng/mL.

What about the concentration at 1 h ([2]; New Zealand white, vitreous humor, 15 mg/kg i.v. 6 hr infusion, hour 1, read-out: Concentration of mecamylamine in the vitreous humor, Mean) of the same molecule?
The concentration at 1 h was 138 ng/mL.

What about the concentration at 2 h ([2]; New Zealand white, vitreous humor, 15 mg/kg i.v. 6 hr infusion, hour 2, read-out: Concentration of mecamylamine in the vitreous humor, Mean) of the same molecule?
The concentration at 2 h was 223 ng/mL.

What about the concentration at 4 h ([2]; New Zealand white, vitreous humor, 15 mg/kg i.v. 6 hr infusion, hour 4, read-out: Concentration of mecamylamine in the vitreous humor, Mean) of the same molecule?
Its concentration at 4 h is 408 ng/mL.

What about the concentration at 6 h ([2]; New Zealand white, vitreous humor, 15 mg/kg i.v. 6 hr infusion, hour 6, read-out: Concentration of mecamylamine in the vitreous humor, Mean) of the same molecule?
Its concentration at 6 h is 458 ng/mL.

And the “Concentration of mecamylamine in the retina/choroid, Mean” value ([2]; 15 mg/kg i.v. 1 hr infusion)?
Its value is 260.8 ng/mL.

And the “Concentration of mecamylamine in the retina/choroid, Mean” value ([2]; 15 mg/kg i.v. 6 hr infusion)?
The value was 1534.3 ng/mL.

And the “peak mean plasma concentration” value ([2]; 15 mg/kg i.v. over longer period (6 hours))?
Its value is 717 ng/mL.

What about the “time of peak plasma levels” value ([2]; 15 mg/kg i.v. over shorter period) of the same molecule?
The value was ≤ 0.5 h.

And the “peak mean plasma concentration” value ([2]; 15 mg/kg i.v. over shorter period (60 minutes))?
Its value is 5,331 ng/mL.

What about the “highest mean level in the vitreous” value ([2]; longer infusion period, seen at 6 hours) of the same molecule?
The value was 458 ng/mL.

What about the “highest mean level in the vitreous” value ([2]; shorter infusion period, seen at 1 hour) of the same molecule?
Its value is 1110 ng/mL.

And the mortality [3]?
Its mortality is “no mortality”.

What about the accumulation ratios ([4]; Beagle dog, Day 13 versus Day 1, any group) of the same molecule?
Its accumulation ratios is ≤ 1.14.

And the Cmax ([4]; 3 mg/eye/day, Group 2 (2 doses/eye/day, 3 mg/eye/day), read-out: Cmax, mean)?
Its Cmax is 49 ng/mL.

And the Cmax ([4]; 3 mg/eye/day, Group 2, read-out: Cmax, highest overall value)?
The Cmax was 185 ng/mL.

And the Cmax ([4]; 6 mg/eye/day, Group 3 (4 doses/eye/day, 6 mg/eye/day), read-out: Cmax, mean)?
Its Cmax is 44 ng/mL.

And the Cmax ([4]; 9 mg/eye/day, Group 4 (6 doses/eye/day, 9 mg/eye/day), read-out: Cmax, mean)?
Its Cmax is 64 ng/mL.

What about the “VEGF-induced endothelial tube formation” value [5] of the same molecule?
Its value is “inhibited”.
